Laboratory results taken from ChEMBL document CHEMBL1127004, “Structure-based design and pharmacological properties of potent selective and systemically active CCK-B peptidomimetics” (Bioorg Med Chem Lett, 1993).
pKi: −log10 of the molar value. Non-standard residues stand in square brackets, D forms with d. Residues, ends and D or L forms follow the SMILES beside them. *: point of attachment. 1Nal = N[C@@H](Cc1cccc2ccccc12)C(=O)O; Phg = N[C@H](C(=O)O)c1ccccc1; Boc = CC(C)(C)OC(=O)*

Target: T1, Cholecystokinin receptor type A (Cavia porcellus, UniProt Q63931)
T1 sequence (Q63931 whole entry): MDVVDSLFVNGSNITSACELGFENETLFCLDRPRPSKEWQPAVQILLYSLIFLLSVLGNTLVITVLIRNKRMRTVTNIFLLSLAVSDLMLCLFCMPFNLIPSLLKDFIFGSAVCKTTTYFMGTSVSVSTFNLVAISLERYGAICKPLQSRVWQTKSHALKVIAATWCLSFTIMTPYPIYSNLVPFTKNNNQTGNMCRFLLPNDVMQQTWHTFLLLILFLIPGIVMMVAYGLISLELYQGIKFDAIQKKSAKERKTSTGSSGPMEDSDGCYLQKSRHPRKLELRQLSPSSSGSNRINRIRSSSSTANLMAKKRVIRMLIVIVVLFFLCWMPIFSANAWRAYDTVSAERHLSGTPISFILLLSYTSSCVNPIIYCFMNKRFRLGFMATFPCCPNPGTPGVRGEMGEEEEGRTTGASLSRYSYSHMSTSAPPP
Assay: Tested for the inhibition of [3H]pCCK-8 binding to Cholecystokinin type A receptor in pancreatic membranes of guinea-pig
Type: cell membranes

SMILES | pKi
CC(C)(C)OC(=O)N[C@@H](Cc1c[nH]c2ccccc12)C(=O)N[C@@H](Cc1ccccc1)C(=O)N[C@@H](CC(=O)O)C(=O)N[C@@H](Cc1cccc2ccccc12)C(N)=O (Boc-WFD[1Nal]-NH2) | 5.62
CN(C)C(=O)[C@H](Cc1cccc2ccccc12)NC(=O)[C@H](CC(=O)O)NC(=O)[C@@H](NC(=O)[C@H](Cc1c[nH]c2ccccc12)NC(=O)OC(C)(C)C)c1ccccc1 (Boc-W[Phg]D[1Nal]-NMe2) | 6.00
CC(C)(C)OC(=O)N[C@@H](Cc1c[nH]c2ccccc12)C(=O)N[C@H](C(=O)N[C@@H](CC(=O)O)C(=O)N[C@@H](Cc1cccc2ccccc12)C(N)=O)c1ccccc1 (Boc-W[Phg]D[1Nal]-NH2) | 5.96
CCCC[C@@H](NC(=O)CC(=O)N[C@@H](Cc1c[nH]c2ccccc12)C(=O)N(C)[C@@H](CCCC)C(=O)N[C@@H](CC(=O)O)C(=O)N[C@@H](Cc1ccccc1)C(N)=O)NC(=O)[C@H](Cc1ccc(CS(=O)(=O)O)cc1)NC(=O)OC(C)(C)C | 5.96
